# Columns and labels:
# [1] = test system: prions; conditions: 59% solution admitted into sterilization chamber under vacuum, vapor at one point excited into plasma
# [2] = test system: prions (10% brain homogenates from hamsters with scrapie); type: in vivo, hamster; conditions: hydrogen peroxide vapor of higher concentrations and/or higher plasma density
compound,measurement,setting,value
OO [hydrogen peroxide],inactivation of prions on the instruments,[1],failed to sufficiently inactivate prions
same,"inactivating prions, rendering article non-infectious for prion diseases",[2],effective in inactivating prions

# Source: patent publication US20070231202A1 (priority 2006, published 2007)
